Assay: xn = mol fraction of the nth substance listed
Settings: Liquid; for speed of sound: Frequency=3 MHz, Pulse-echo method; for mass density: Vibrating tube method

CCOC(F)(C(F)(F)C(F)(F)C(F)(F)F)C(F)(C(F)(F)F)C(F)(F)F (stereo not given) [2-trifluoromethyl-3-ethoxydodecafluorohexane] + CC(C)OC(C)C
Settings	mass density, x1 = 0.25 [kg/m3]	mass density, x1 = 0.375 [kg/m3]	mass density, x1 = 0.5 [kg/m3]	mass density, x1 = 0.625 [kg/m3]	mass density, x1 = 0.75 [kg/m3]	speed of sound, x1 = 0.25 [m/s]	speed of sound, x1 = 0.375 [m/s]	speed of sound, x1 = 0.5 [m/s]	speed of sound, x1 = 0.625 [m/s]	speed of sound, x1 = 0.75 [m/s]
293.15 K, 100 kPa	1053.2	1178.3	1289.5	1391.2	1478.4	802	756.1	719.2	701.5	686.9
293.15 K, 10000 kPa	1071	1197.9	1310.6	1413.6	1501.4	–	–	–	–	–
293.15 K, 20000 kPa	1086.1	1214.9	1328.9	1432.8	1521.4	930.1	879	839	818.1	799.8
293.15 K, 30000 kPa	1099.4	1229.8	1344.9	1449.9	1539	–	–	–	–	–
293.15 K, 40000 kPa	1111.2	1243.1	1359.3	1465.1	1554.8	1029.9	975.3	933	909.4	888.3
293.15 K, 50000 kPa	1122.1	1255.2	1372.4	1479	1569.2	–	–	–	–	–
293.15 K, 60000 kPa	1132.1	1266.3	1384.4	1491.7	1582.4	1113.8	1056.9	1012.2	988	963.7
293.15 K, 70000 kPa	1141.5	1276.8	1395.6	1503.7	1594.8	–	–	–	–	–
293.15 K, 80000 kPa	1150.2	1286.4	1406.1	1514.7	1606.3	1187.2	1127.9	1081.1	1056.3	1029.1
293.15 K, 90000 kPa	1158.4	1295.5	1416	1525.1	1617.1	–	–	–	–	–
293.15 K, 100000 kPa	1166.2	1304.3	1425.3	1535	1627.3	1254	1190.8	1143	1116.9	1088.5
293.15 K, 110000 kPa	1173.5	1312.4	1434.1	1544.3	1637.1	–	–	–	–	–
293.15 K, 120000 kPa	1180.7	1320.3	1442.6	1553.2	1646.4	–	–	–	–	–
293.15 K, 130000 kPa	1187.4	1327.8	1450.7	1561.8	1655.3	–	–	–	–	–
293.15 K, 140000 kPa	1193.8	1335.1	1458.3	1569.9	1663.8	–	–	–	–	–
303.15 K, 100 kPa	1038.3	1161.8	1271.6	1372.4	1458.7	763.8	–	687.9	670.9	656
303.15 K, 10000 kPa	1057.2	1183	1294.5	1396.6	1483.7	–	–	–	–	–
303.15 K, 20000 kPa	1073.6	1201.2	1314.1	1417.3	1505.1	898.1	848.7	812.7	793.7	773.5
303.15 K, 30000 kPa	1087.7	1217	1331.1	1435.3	1523.8	–	–	–	–	–
303.15 K, 40000 kPa	1100.3	1231.1	1346.3	1451.3	1540.4	1001.7	948.6	909.1	889.5	864.7
303.15 K, 50000 kPa	1111.7	1243.8	1360	1465.8	1555.5	–	–	–	–	–
303.15 K, 60000 kPa	1122.1	1255.4	1372.6	1479.2	1569.3	1089.1	1032.1	989.8	969.5	941.8
303.15 K, 70000 kPa	1131.8	1266.2	1384.2	1491.4	1582.1	–	–	–	–	–
303.15 K, 80000 kPa	1140.8	1276.1	1395.1	1502.8	1594	1164.4	1104	1059.8	–	1008.7
303.15 K, 90000 kPa	1149.3	1285.5	1405.2	1513.6	1605.2	–	–	–	–	–
303.15 K, 100000 kPa	1157.3	1294.3	1414.8	1523.7	1615.8	1231.9	1170.1	1123	1101.7	1068.1
303.15 K, 110000 kPa	1164.9	1302.8	1423.9	1533.3	1625.8	–	–	–	–	–
303.15 K, 120000 kPa	1172.1	1310.8	1432.6	1542.4	1635.3	–	–	–	–	–
303.15 K, 130000 kPa	1178.8	1318.4	1440.8	1551.2	1644.4	–	–	–	–	–
303.15 K, 140000 kPa	1185.4	1325.9	1448.7	1559.5	1653.1	–	–	–	–	–
313.15 K, 100 kPa	1022.4	1144.5	1253.4	1351.8	1438.4	729.6	–	656.3	641.2	626.5
313.15 K, 10000 kPa	1042.9	1167.7	1278.3	1378.1	1465.4	–	–	–	–	–
313.15 K, 20000 kPa	1060.3	1187.2	1299.2	1400.1	1488.1	870.2	821.7	786.8	769.5	749.4
313.15 K, 30000 kPa	1075.3	1203.9	1317.2	1419.2	1507.8	–	–	–	–	–
313.15 K, 40000 kPa	1088.5	1218.6	1333.1	1436	1525.3	975.8	924.1	885.6	866.8	843.3
313.15 K, 50000 kPa	1100.5	1232	1347.4	–	–	–	–	–	–	–

Reference: the NIST ThermoML archive (doi:10.1016/j.jct.2018.08.005)
